Measurements published in patent US20230303512A1, “MODULATORS OF MYB-MEDIATED TRANSCRIPTION AND USES THEREOF” (Massachusetts Institute of Technology, priority 2020, published 2023).

How the values were obtained:
endogenous Myb protein = experiment: Molt4-5×MRE-FLuc reporter assay; type: cell-based; details: 4 hours, One-Glo, normalized to DMSO; read-out: IC50 Molt4-5xMRE-FLuc Reporter
Experimental: Molt4 cells were stably transduced with a lentiviral construct encoding a 5×MRE Myb-responsive promoter driving firefly luciferase expression. The reporter output is controlled by the levels/activity of endogenous Myb protein in the Molt4 cell line.
Molt4-5×MRE-FLuc cells were plated at a density of 10000 cells/well in 25 uL of media in a 384-well plate. Compound analogs were added using a Tecan transfer tool to the wells. The plate was incubated for 4 hours, and then firefly luciferase signal measured using promega One-Glo luciferase assay system according to the manufacturer's protocols. The signal was normalized to control wells which were treated with DMSO vehicle.

Molt4-5×MRE-FLuc cells = experiment: Cell-Titer Glo viability assay, Molt4-5×MRE-FLuc cells; type: cell-based; details: 4 hours; read-out: IC50 Cell Titer Glo Molt4-5xMRE-FLuc Viability
Experimental: Molt4-5×MRE-FLuc cells were plated at a density of 10000 cells/well in 25 uL of media in a 384-well plate. The following day, compound analogs were added using a Tecan transfer tool. The plates were incubated for 4 hours, and then the viability was measured using promega Cell-titer glo assay according to the manufacturer's protocols.

Row | SMILES | IC50 (Molt4-5×MRE-FLuc cells) | IC50 (endogenous Myb protein)
1 | Cc1cc(N2CCC(NCc3cccc(CN4CCCC4)c3)CC2)nc(N)n1 [KI-TM1-028, 4-Methyl-6-(4-((3-(pyrrolidin-1-ylmethyl)benzyl)amino)piperidin-1-yl)pyrimidin-2-amine] | > 40 µM | > 40 µM
2 | Cc1cc(N2CCC(NCc3cccc(N4CCN(C)CC4)c3)CC2)nc(N)n1 [KI-TM1-039, 4-Methyl-6-(4-((3-(4-methylpiperazin-1-yl)benzyl)amino)piperidin-1-yl)pyrimidin-2-amine] | > 40 µM | > 40 µM
3 | Cc1cc(N2CCC(NCc3cccc(N4CCCC4)c3)CC2)ncn1 [KI-TM1-019, 1-(6-Methylpyrimidin-4-yl)-N-(3-(pyrrolidin-1-yl)benzyl)piperidin-4-amine] | > 40 µM | 22.1 µM
4 | Cc1cc(N2CCC(NCc3cccc(C(C)(C)C)c3)CC2)nc(N)n1 [KI-TM1-026, 4-(4-((3-(tert-Butyl)benzyl)amino)piperidin-1-yl)-6-methylpyrimidin-2-amine] | > 40 µM | > 40 µM
5 | COc1cccc(CNC2CCN(c3cc(C)nc(N)n3)CC2)c1 [KI-TM1-012, 4-(4-((3-methoxybenzyl)amino)piperidin-1-yl)-6-methylpyrimidin-2-amine] | > 40 µM | > 40 µM
6 | Cc1cc(N2CCC(NCc3cccc(N4CCCC4)c3)CC2)nc(Cl)n1 [KI-TM1-033, 1-(2-Chloro-6-methylpyrimidin-4-yl)-N-(3-(pyrrolidin-1-yl)benzyl)piperidin-4-amine] | > 40 µM | 23.5 µM
7 | Cc1cc(N2CCC(NCc3ccc(N4CCCC4)cc3)CC2)nc(N)n1 [KI-TM1-007, 4-methyl-6-(4-((4-(pyrrolidin-1-yl)benzyl)amino)piperidin-1-yl)pyrimidin-2-amine] | > 40 µM | > 40 µM
8 | Cc1cc(NCCCNCc2cccc(N3CCCC3)c2)nc(N)n1 [KI-TM1-017, 6-Methyl-N^4-(3-((3-(pyrrolidin-1-yl)benzyl)amino)propyl)pyrimidine-2,4-diamine] | > 40 µM | > 40 µM
9 | CCN(CC)c1ccc(CNC2CCN(c3cc(C)nc(N)n3)CC2)cc1 [KI-TM1-027, 4-(4-((4-(Diethylamino)benzyl)amino)piperidin-1-yl)-6-methylpyrimidin-2-amine] | > 40 µM | > 40 µM
10 | Cc1cc(N2CCC(NCc3cccc(N4CCOCC4)c3)CC2)nc(N)n1 [KI-TM1-040, 4-Methyl-6-(4-((3-morpholinobenzyl)amino)piperidin-1-yl)pyrimidin-2-amine] | > 40 µM | > 40 µM
11 | Cc1cc(N2CCC(NCc3cccc(N(C)C)c3)CC2)nc(N)n1 [KI-TM1-011, 4-(4-((3-(dimethylamino)benzyl)amino)piperidin-1-yl)-6-methylpyrimidin-2-amine] | > 40 µM | > 40 µM
12 | Cc1cc(N2CCC(NCc3cccc(-n4ccnc4)c3)CC2)nc(N)n1 [KI-TM1-014, 4-(4-((3-(1H-imidazol-1-yl)benzyl)amino)piperidin-1-yl)-6-methylpyrimidin-2-amine] | > 40 µM | > 40 µM

More lines, main results first:

Row | IC50 (Molt4-5×MRE-FLuc cells) | SMILES | IC50 (endogenous Myb protein)
13 | > 40 µM | Cc1cc(N2CCC(NCc3cccc(N4CCCC4)c3)CC2)nc(NCCOCCOCCOCCN)n1 [KI-TM1-041, N-(2-(2-(2-(2-Aminoethoxy)ethoxy)ethoxy)ethyl)-4-methyl-6-(4-((3-(pyrrolidin-1-yl)benzyl)amino)piperidin-1-yl)pyrimidin-2-amine] | > 40 µM
14 | > 40 µM | Cc1cc(N2CCC(NCc3cccc(N4CCCCC4)c3)CC2)nc(N)n1 [KI-TM1-009, 4-methyl-6-(4-((3-(piperidin-1-yl)benzyl)amino)piperidin-1-yl)pyrimidin-2-amine] | 23.2 µM
15 | > 40 µM | CCCNC(=O)N(Cc1cccc(N2CCCC2)c1)C1CCN(c2cc(C)nc(N)n2)CC1 [KI-TM1-034, 1-(1-(2-Amino-6-methylpyrimidin-4-yl)piperidin-4-yl)-3-propyl-1-(3-(pyrrolidin-1-yl)benzyl)urea] | > 40 µM
16 | > 40 µM | C#CCCC1(CCN(Cc2cccc(N3CCCC3)c2)C2CCN(c3cc(C)nc(N)n3)CC2)N=N1 [KI-TM1-030, 4-(4-((2-(3-(But-3-yn-1-yl)-3H-diazirin-3-yl)ethyl)(3-(pyrrolidin-1-yl)benzyl)amino)-piperidin-1-yl)-6-methylpyrimidin-2-amine] | 19.8 µM
17 | > 40 µM | Cc1cc(N2CCCC(N(Cc3cccc(N4CCCC4)c3)C(=O)C=COCCOCCOCCN)C2)nc(N)n1 (centres unmarked) [KI-TM1-032, N-(1-(2-Amino-6-methylpyrimidin-4-yl)piperidin-3-yl)-3-(2-(2-(2-aminoethoxy)ethoxy)-ethoxy)-N-(3-(pyrrolidin-1-yl)benzyl)propenamide] | > 40 µM
18 | > 40 µM | Cc1cc(N2CCC(NCc3cccc(N4CCCC4)c3)CC2)nc(NCCO)n1 [KI-TM1-037, 2-((4-Methyl-6-(4-((3-(pyrrolidin-1-yl)benzyl)amino)piperidin-1-yl)pyrimidin-2-yl)amino)ethan-1-ol] | > 40 µM
19 | > 40 µM | CC(=O)N(Cc1cccc(N2CCCC2)c1)C1CCN(c2cc(C)nc(N)n2)CC1 [KI-TM1-004, N-(1-(2-amino-6-methylpyrimidin-4-yl)piperidin-4-yl)-N-(3-(pyrrolidin-1-yl)benzyl)acetamide] | > 40 µM
20 | > 40 µM | Cc1cc(N2CCC(N(Cc3cccc(N4CCCC4)c3)C(=O)NC(C)C)CC2)nc(N)n1 [KI-TM1-003, 1-(1-(2-Amino-6-methylpyrimidin-4-yl)piperidin-4-yl)-3-isopropyl-1-(3-(pyrrolidin-1-yl)benzyl)urea] | > 40 µM
21 | > 40 µM | Nc1nc(Cl)cc(N2CCC(NCc3cccc(N4CCCC4)c3)CC2)n1 [KI-TM1-038, 4-Chloro-6-(4-((3-(pyrrolidin-1-yl)benzyl)amino)piperidin-1-yl)pyrimidin-2-amine] | > 40 µM
22 | > 40 µM | Cc1cc(N2CCC(N(Cc3cccc(N4CCCC4)c3)C(=O)C=COCCOCCOCCN)CC2)nc(N)n1 [KI-TM1-031, N-(1-(2-Amino-6-methylpyrimidin-4-yl)piperidin-4-yl)-3-(2-(2-(2-aminoethoxy)ethoxy)-ethoxy)-N-(3-(pyrrolidin-1-yl)benzyl)propenamide] | > 40 µM
23 | > 40 µM | Cc1cc(N2CCC(N(CCCCCCOCCOCCOCCCCCC(=O)Nc3cccc4c3C(=O)N(C3CCC(=O)NC3=O)C4=O)Cc3cccc(N4CCCC4)c3)CC2)nc(N)n1 (centres unmarked) [KI-TM1-043, 2-(1-(2-amino-6-methylpyrimidin-4-yl)piperidin-4-yl)-N-(2-(2,6-dioxopiperidin-3-yl)-1,3-dioxoisoindolin-4-yl)-1-(3-(pyrrolidin-1-yl)phenyl)-9,12,15-trioxa-2-azahenicosan-21-amide] | > 40 µM
24 | > 40 µM | Cc1cc(N2CCC(N(CCCCCCOCCOCC(=O)Nc3cccc4c3C(=O)N(C3CCC(=O)NC3=O)C4=O)Cc3cccc(N4CCCC4)c3)CC2)nc(N)n1 (centres unmarked) [KI-TM1-044, 2-(2-((6-((1-(2-Amino-6-methylpyrimidin-4-yl)piperidin-4-yl)(3-(pyrrolidin-1-yl)benzyl)amino)hexyl)oxy)ethoxy)-N-(2-(2,6-dioxopiperidin-3-yl)-1,3-dioxoisoindolin-4-yl)acetamide] | > 40 µM
25 | > 40 µM | Cc1cc(N2CCC(NC(=O)c3cccc(N4CCCC4)c3)CC2)nc(N)n1 [KI-TM1-008, N-(1-(2-amino-6-methylpyrimidin-4-yl)piperidin-4-yl)-3-(pyrrolidin-1-yl)benzamide] | > 40 µM
